Experimental data as given in ChEMBL document CHEMBL5291721, “A preclinical secondary pharmacology resource illuminates target-adverse drug reaction associations of marketed drugs” (Nat Commun, 2023).

Assays:
[1] = molecular target: T1, Alpha-2C adrenergic receptor (Homo sapiens, UniProt P18825); format: functional
T1 sequence (P18825 whole entry): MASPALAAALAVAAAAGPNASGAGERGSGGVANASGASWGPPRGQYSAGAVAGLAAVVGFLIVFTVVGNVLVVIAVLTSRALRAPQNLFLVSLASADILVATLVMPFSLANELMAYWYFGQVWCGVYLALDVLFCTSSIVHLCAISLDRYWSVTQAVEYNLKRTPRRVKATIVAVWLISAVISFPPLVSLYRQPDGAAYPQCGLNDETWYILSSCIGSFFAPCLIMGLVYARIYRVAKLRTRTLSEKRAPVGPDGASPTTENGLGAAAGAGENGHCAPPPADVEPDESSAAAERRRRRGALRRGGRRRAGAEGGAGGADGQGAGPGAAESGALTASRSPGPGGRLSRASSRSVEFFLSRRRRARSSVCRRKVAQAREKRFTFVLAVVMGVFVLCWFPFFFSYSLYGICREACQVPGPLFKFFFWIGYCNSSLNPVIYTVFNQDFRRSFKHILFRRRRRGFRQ

[2] = molecular target: Acetylcholinesterase (Homo sapiens, UniProt P22303); format: functional
Sequence of Acetylcholinesterase (P22303 whole entry): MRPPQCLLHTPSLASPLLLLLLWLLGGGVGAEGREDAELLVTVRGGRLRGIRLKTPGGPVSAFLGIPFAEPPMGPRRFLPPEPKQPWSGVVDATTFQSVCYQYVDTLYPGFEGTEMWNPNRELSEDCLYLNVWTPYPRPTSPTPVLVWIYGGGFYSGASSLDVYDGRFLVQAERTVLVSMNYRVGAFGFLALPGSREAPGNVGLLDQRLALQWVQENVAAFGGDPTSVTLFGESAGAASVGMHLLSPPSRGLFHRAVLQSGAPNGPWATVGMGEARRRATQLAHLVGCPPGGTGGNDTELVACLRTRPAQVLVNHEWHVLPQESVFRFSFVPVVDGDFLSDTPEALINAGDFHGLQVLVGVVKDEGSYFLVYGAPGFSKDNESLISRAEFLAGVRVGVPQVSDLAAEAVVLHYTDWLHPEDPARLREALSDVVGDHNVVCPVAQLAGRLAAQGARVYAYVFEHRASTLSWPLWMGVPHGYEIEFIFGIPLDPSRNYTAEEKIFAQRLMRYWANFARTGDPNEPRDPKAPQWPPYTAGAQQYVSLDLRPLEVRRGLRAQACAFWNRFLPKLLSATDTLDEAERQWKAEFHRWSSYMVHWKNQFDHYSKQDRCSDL
Also: assay procedure not described here.

AC50 [1] [µM] | SMILES | AC50 [2] [µM]
9.3 | Cc1[nH]cnc1CN1CCc2c(c3ccccc3n2C)C1=O [ALOSETRON] | –
– | C=CC(=O)N1CCC[C@@H](n2nc(-c3ccc(Oc4ccccc4)cc3)c3c(N)ncnc32)C1 [IBRUTINIB] | > 30
– | CN1C[C@H](CNC(=O)OCc2ccccc2)C[C@@H]2c3cccc4c3c(cn4C)C[C@H]21 [METERGOLINE] | 1.1
